Data on six molecules can be found in US7968529B2, “Use of sphingolipids for reducing high plasma cholesterol and high triacylglycerol levels” (Nederlandse Organisatie Voor …, priority 2003, dated 2011).

Common to all, as to assay type: in vivo
Assay [1] has as its system APOE*3Leiden transgenic mice. Description: Plasma cholesterol in APOE*3Leiden transgenic mice fed a Western-type diet with sphingolipid. The text has this:
(§1) In this experiment mice were used in which the human gene for the so-called Leiden mutation of apolipoprotein E3 (APOE*3Leiden transgenic mice) had been incorporated by transgenesis. Because of this transgenic change, these so-called APOE*3Leiden mice have a humanized lipoprotein profile, and are extremely suitable for studying the effect of compounds on lipoprotein metabolism (Van Vlijmen et. al. 1996. J Clin Invest. 97:1184-1192; Van Vlijmen et. al. 1998. Arzneimittelforschung 1998; 48:396-402.).
(§2) The study design was as follows: female mice were fed for 5 weeks “Western-type” diet (Nishina et al. 1990. J Lipid Res. 31:859-869) containing 0.25% (w/w) cholesterol. Specifically, the diet contained 15% (all w/w) cocoabutter, 0.25% cholesterol, 1% corn oil, 40.5% sucrose, 20% acid casein, 10% corn starch and 5.95% cellulose, as major ingredients. This diet increased their plasma cholesterol level to about 15 mmol/L. Subsequently, the mice were randomized, on the basis of their plasma cholesterol level, into groups of six mice each. These groups were given the same diet, but containing in addition: • Group 1 no addition • Group 2 0.1% (w/w) phytosphingosine • Group 3 0.1% (w/w) sphingosine • Group 4 0.1% (w/w) sphinganine • Group 5 0.1% (w/w) cerebroside • Group 6 0.1% (w/w) ceramide IV • Group 7 0.1% (w/w) sphingomyelin
(§3) The phytosphingosine, ceramide IV and cerebroside (=glucosyl ceramide) were obtained from Cosmoferm BV (Delft, The Netherlands). Sphingomyelin from egg was obtained from Larodan Fine Chemicals AB (Stockholm, Sweden) and sphingosine and sphinganine were obtained from Avanti Polar Lipids Inc, (Alabaster, Ala., USA). During the experiment, body weight and food intake were monitored. At three weeks after the dietary change, blood was taken to determine plasma cholesterol and triglyceride levels. Also, the plasma lipoprotein pattern was determined group wise in pooled samples by fplc. Then, the concentration of the additives was changed to 0.2%, and feeding continued for another 3 weeks. At three weeks after this dietary change, blood was again taken to determine plasma cholesterol and triglyceride levels, and the plasma lipoprotein pattern was determined group wise in pooled samples by fplc. The dietary additives were then changed to 0.4% (w/w), and the same cycle of feeding and blood sampling was executed.
(§4) In a separate experiment, groups of six APOE*3Leiden mice were fed the above-described Western-type diet, containing 1.0% (w/w) of phytosphingosine. At the end of the treatment period, plasma cholesterol was reduced with 58% (p=0.007) and plasma triglyceride was reduced with 64% (p=0.01) with respect to the control group.

Assay [2] concerns APOE*3Leiden transgenic mice. Description: Plasma triglycerides in APOE*3Leiden transgenic mice fed a Western-type diet with sphingolipid.
Description: as §1, §2, §3, §4

In assay [3] the test system is APOE*3Leiden transgenic mice. The experiment in a line: Plasma lipoprotein distribution pattern by fplc in pooled samples. Conditions: separate experiment, 1.0% (w/w) in diet.
Description: as §3, with “executed. […] In a separate experiment, groups of six APOE*3Leiden mice were fed the above-described Western-type diet, containing 1.0% (w/w) of phytosphingosine. At the end of the treatment period, plasma cholesterol was reduced with 58% (p=0.007) and plasma triglyceride was reduced with 64% (p=0.01) with respect to the control group.” for “executed.”

[4] abbreviates: t = 0, baseline after 5 weeks Western-type diet, before addition of sphingolipid, female mice, group mean.
The mark [5] stands for this setting: t = 3 (weeks), 0.1% (w/w) in diet.
Where [6] appears, read: t = 6 (weeks), 0.2% in diet for the last 3 weeks.
The mark [7] stands for this setting: t = 9 (weeks), 0.4% (w/w) in diet for the last 3 weeks.

With `CCCCCCCCCCCCCC[C@@H](O)[C@@H](O)[C@@H](N)CO` [PHYTOSPHINGOSINE, phytosphingosine], the “plasma cholesterol reduced with respect to the control group” value in assay [1] (separate experiment, 1.0% (w/w) in Western-type diet, end of treatment period, p=0.007) stood at 58%. In addition, the Plasma cholesterol levels in assay [1] (setting [4]) turned out to be 14.4 mmol/L; in assay [1] (setting [5]), 13.2 mmol/L; in assay [1] (setting [6]), 12.6 mmol/L; in assay [1] (setting [7]) it was 10.9 mmol/L. Besides, the “Plasma cholesterol reduction relative to control” value in assay [1] (t = 3 (weeks), 0.1% in diet) is given as 11.6%; in assay [1] (t = 6 (weeks), 0.2% in diet), 19.7%; in assay [1] (t = 9 (weeks), 0.4% in diet), 34.8%. Besides, the “plasma triglyceride reduced with respect to the control group” value in assay [2] (separate experiment, 1.0% (w/w) in Western-type diet, end of treatment period, p=0.01) turned out to be 64%. Besides, the Plasma triglyceride levels stood at 2.1 mmol/L in assay [2] (setting [4]), 1.7 mmol/L in assay [2] (setting [5]), 1.2 mmol/L in assay [2] (setting [6]) and 1.5 mmol/L in assay [2] (setting [7]). The “Plasma triglyceride reduction relative to control” value stood at 22.9% in assay [2] (t = 3 (weeks), 0.1% in diet); 39.8% in assay [2] (t = 6 (weeks), 0.2% in diet); 34.8% in assay [2] (t = 9 (weeks), 0.4% in diet). Besides, the “lipoprotein fractions accounting for the decrease of cholesterol and triglycerides (fplc)” value in assay [3] is “fully due to a decrease in VLDL and IDL/LDL fractions”.

With `CCCCCCCCCCCCCCC[C@@H](O)[C@@H](N)CO` [SPHINGANINE, sphinganine], the Plasma cholesterol levels came out at 15.9 mmol/L in assay [1] (setting [4]), 14.9 mmol/L in assay [1] (setting [5]), 10.0 mmol/L in assay [1] (setting [6]) and 11.5 mmol/L in assay [1] (setting [7]). Also, the “Plasma cholesterol reduction relative to control” value is on record as 0.3% in assay [1] (t = 3 (weeks), 0.1% in diet); 36.2% in assay [1] (t = 6 (weeks), 0.2% in diet); 31.2% in assay [1] (t = 9 (weeks), 0.4% in diet). The Plasma triglyceride levels in assay [2] (setting [4]) is 2.3 mmol/L; in assay [2] (setting [5]), 1.7 mmol/L; in assay [2] (setting [6]), 1.0 mmol/L; in assay [2] (setting [7]), 1.2 mmol/L. For the same molecule, the “Plasma triglyceride reduction relative to control” value came to 19.2% in assay [2] (t = 3 (weeks), 0.1% in diet); 52.9% in assay [2] (t = 6 (weeks), 0.2% in diet); 44.9% in assay [2] (t = 9 (weeks), 0.4% in diet).

Consider `CCCCCCCCCCCCC/C=C/[C@@H](O)[C@@H](N)CO` [SPHINGOSINE, sphingosine], for which the Plasma cholesterol levels turned out to be 14.6 mmol/L in assay [1] (setting [4]), 15.3 mmol/L in assay [1] (setting [5]), 11.0 mmol/L in assay [1] (setting [6]) and 9.5 mmol/L in assay [1] (setting [7]). In addition, the “Plasma cholesterol reduction relative to control” value is on record as −2.1% in assay [1] (t = 3 (weeks), 0.1% in diet); 29.7% in assay [1] (t = 6 (weeks), 0.2% in diet); 43.3% in assay [1] (t = 9 (weeks), 0.4% in diet). Further, the Plasma triglyceride levels in assay [2] (setting [4]) is on record as 2.3 mmol/L; in assay [2] (setting [5]), 2.2 mmol/L; in assay [2] (setting [6]) it was 1.4 mmol/L; in assay [2] (setting [7]) it was 1.0 mmol/L. Further, the “Plasma triglyceride reduction relative to control” value is on record as −0.6% in assay [2] (t = 3 (weeks), 0.1% in diet); 32.5% in assay [2] (t = 6 (weeks), 0.2% in diet); 54.3% in assay [2] (t = 9 (weeks), 0.4% in diet).

On to ceramide IV, for which the Plasma cholesterol levels in assay [1] (setting [4]) was determined as 15.6 mmol/L; in assay [1] (setting [5]), 14.8 mmol/L; in assay [1] (setting [6]), 12.6 mmol/L; in assay [1] (setting [7]), 11.7 mmol/L. Besides, the “Plasma cholesterol reduction relative to control” value came out at 1.5% in assay [1] (t = 3 (weeks), 0.1% in diet); 19.4% in assay [1] (t = 6 (weeks), 0.2% in diet); 29.9% in assay [1] (t = 9 (weeks), 0.4% in diet). In addition, the Plasma triglyceride levels in assay [2] (setting [4]) was 2.3 mmol/L; in assay [2] (setting [5]), 2.0 mmol/L; in assay [2] (setting [6]), 1.1 mmol/L; in assay [2] (setting [7]) it was 1.4 mmol/L. Further, the “Plasma triglyceride reduction relative to control” value in assay [2] (t = 3 (weeks), 0.1% in diet) is 8.5%; in assay [2] (t = 6 (weeks), 0.2% in diet) it was 49.1%; in assay [2] (t = 9 (weeks), 0.4% in diet) it was 38.4%.

With glucosyl ceramide [CEREBROSIDE], the Plasma cholesterol levels in assay [1] (setting [4]) is reported as 14.8 mmol/L; in assay [1] (setting [5]), 14.2 mmol/L; in assay [1] (setting [6]) it was 11.7 mmol/L; in assay [1] (setting [7]) it was 12.8 mmol/L. Further, the “Plasma cholesterol reduction relative to control” value in assay [1] (t = 3 (weeks), 0.1% in diet) was 5.2%; in assay [1] (t = 6 (weeks), 0.2% in diet), 25.6%; in assay [1] (t = 9 (weeks), 0.4% in diet), 23.4%. For the same molecule, the Plasma triglyceride levels in assay [2] (setting [4]) is on record as 2.2 mmol/L; in assay [2] (setting [5]), 2.2 mmol/L; in assay [2] (setting [6]) it was 1.2 mmol/L; in assay [2] (setting [7]), 1.8 mmol/L. In addition, the “Plasma triglyceride reduction relative to control” value was −1.2% in assay [2] (t = 3 (weeks), 0.1% in diet); 42.0% in assay [2] (t = 6 (weeks), 0.2% in diet); 21.9% in assay [2] (t = 9 (weeks), 0.4% in diet).

As for sphingomyelin, the Plasma cholesterol levels came out at 15.1 mmol/L in assay [1] (setting [4]), 14.7 mmol/L in assay [1] (setting [5]), 9.9 mmol/L in assay [1] (setting [6]) and 8.7 mmol/L in assay [1] (setting [7]). Further, the “Plasma cholesterol reduction relative to control” value in assay [1] (t = 3 (weeks), 0.1% in diet) stood at 1.9%; in assay [1] (t = 6 (weeks), 0.2% in diet), 36.8%; in assay [1] (t = 9 (weeks), 0.4% in diet), 48.2%. The Plasma triglyceride levels is on record as 2.5 mmol/L in assay [2] (setting [4]), 1.7 mmol/L in assay [2] (setting [5]), 1.2 mmol/L in assay [2] (setting [6]) and 0.9 mmol/L in assay [2] (setting [7]). In addition, the “Plasma triglyceride reduction relative to control” value in assay [2] (t = 3 (weeks), 0.1% in diet) came out at 19.9%; in assay [2] (t = 6 (weeks), 0.2% in diet), 42.7%; in assay [2] (t = 9 (weeks), 0.4% in diet), 59.5%.
